Reference: patent publication US6235753A, “Inhibitors of the production of S-CD23 and the secretion of TNF” (priority 1996, dated 2001)
Where two headings read alike, the source gives them in different places.

How the values were obtained:
TNFα = assay: Inhibition of release of TNFα from human monocytes stimulated by LPS (TNF processing inhibition); type: cell-based; conditions: Monocyte, read-out: TNF processing inhibition
Protocol: Procedure 3: The ability of test compounds to inhibit TNF release was investigated using the following procedure. Assay for inhibition of release of TNFα from human monocytes stimulated by lipopolysaccharide (LPS) endotoxin. […] The cell suspension is aliquoted in 24 well plates, 1 ml per well. Compounds to be tested are dissolved in neat dimethyl sulfoxide (DMSO) and added to culture with the final DMSO concentration at 0.1%. Compounds are added to cells in triplicate wells. TNFα release is stimulated by addition of LPS to the cells at a final concentration of 200 ng/ml. Appropriate control cultures are set up in triplicates also. The plates are incubated for 18-20 hrs at 37° C., 5% CO2, then centrifuged at 1000×g for 5 min. A specific ELISA for human TNFα (SmithKline Beecham) is used to measure TNF levels in the cell-free culture supernatants.

CD23 proteinase = target: T1, CD23 proteinase (Homo sapiens, UniProt O14672); assay: RPMI 8866 cell membrane CD23 cleavage activity assay (CD23 proteinase inhibition); type: biochemical; conditions: RPMI 8866 cell membranes
T1 construct: Plasma membranes from RPMI 8866 cells, a human Epstein-Barr virus transformed B-cell line; endogenous in cells; host or cells: RPMI 8866 (human EBV-transformed B-cell line), enriched plasma membranes
T1 sequence (O14672 214-748): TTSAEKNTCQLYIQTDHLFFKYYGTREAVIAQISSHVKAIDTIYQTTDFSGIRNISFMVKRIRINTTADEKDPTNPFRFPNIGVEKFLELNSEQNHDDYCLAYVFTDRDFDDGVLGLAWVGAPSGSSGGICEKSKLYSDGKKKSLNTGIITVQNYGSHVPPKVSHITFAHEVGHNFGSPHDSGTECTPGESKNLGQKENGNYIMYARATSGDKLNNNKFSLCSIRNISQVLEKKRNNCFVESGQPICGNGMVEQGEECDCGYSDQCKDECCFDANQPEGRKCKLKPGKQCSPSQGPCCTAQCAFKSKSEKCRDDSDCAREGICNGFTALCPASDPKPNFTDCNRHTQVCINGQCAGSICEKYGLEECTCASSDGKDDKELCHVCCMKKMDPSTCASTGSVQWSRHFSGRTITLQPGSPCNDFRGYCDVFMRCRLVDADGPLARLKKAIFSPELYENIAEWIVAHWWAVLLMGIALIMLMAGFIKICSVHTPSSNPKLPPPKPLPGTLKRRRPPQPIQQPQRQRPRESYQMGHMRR
Protocol: Procedure 1: The ability of test compounds to inhibit the release of soluble CD23 was investigated by use of the following procedure.
Cells resuspended in homogenization buffer (20 mM HEPES pH 7.4, 150 mM NaCl, 1.5 mM MgCl2, 1 mM DTI) are broken by N2 cavitation in a Parr bomb and the plasma membrane fraction mixed with other membranes is recovered by centrifugation at 10,000×g. The light pellet is resuspended in 0.2 M potassium phosphate, pH 7.2 using 2 ml per 1-3 g wet cells and the nuclear pellet is discarded. […] The phases are separated by brief centrifugation at 1000×g and the PEG (upper) phase is collected, diluted 3-5 fold with 20 mM potassium phosphate buffer pH 7.4, and centrifuged at 100,000×g to recover membranes in that phase. The pellet is resuspended in phosphate-buffered saline and consists of 3-4 fold enriched plasma membranes as well as some other cell membranes (e.g. lysosomes, Golgi). The membranes are aliquoted and stored at -80° C.
The amount of soluble CD23 made by 0.5 ug membrane protein in a total volume of 50 ul phosphate-buffered saline is measured by EIA and compared to the amount made in the presence of various concentrations of inhibitors. Inhibitors are prepared in solutions of water or dimethylsulfoxide (DMSO) and the final DMSO concentration is not more than 2%.

[1] = target: T2, human recombinant collagenase (Homo sapiens, UniProt P03956); assay: Collagenase Inhibition Assay; type: biochemical
T2 construct: made in house; host or cells: E. coli
T2 sequence (P03956 100-469): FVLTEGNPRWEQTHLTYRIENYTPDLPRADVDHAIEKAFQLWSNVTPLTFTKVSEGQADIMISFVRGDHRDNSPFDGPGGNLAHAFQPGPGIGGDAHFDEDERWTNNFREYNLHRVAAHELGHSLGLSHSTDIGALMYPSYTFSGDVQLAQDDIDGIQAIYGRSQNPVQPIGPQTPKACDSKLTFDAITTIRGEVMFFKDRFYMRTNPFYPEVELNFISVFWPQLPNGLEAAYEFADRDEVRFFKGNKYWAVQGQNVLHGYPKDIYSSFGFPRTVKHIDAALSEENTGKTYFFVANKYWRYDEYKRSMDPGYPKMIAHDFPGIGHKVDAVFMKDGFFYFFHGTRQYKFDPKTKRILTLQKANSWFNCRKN
Description: Collagenase Inhibition Assay:
The collagen was acetylated ^3 H type 1 bovine collagen prepared by the method of Cawston and Murphy (methods in Enzymology 80, 711,1981) The samples were centrifuged to sediment undigested collagen and an aliquot of the radioactive supernatant removed for assay on a scintillation counter as a measure of hydrolysis.

## CNC(=O)[C@H](Cc1ccccc1)NC(=O)[C@H](CC(C)C)[C@H](CSc1cccs1)C(=O)NO [Comparative Example, reference compound]
TNFα; Homo sapiens
  inhibition at 1 µM: 76.4 ± 0.9%

## CNC(=O)[C@@H](NC(=O)[C@H](Cc1ccc2ccccc2c1)[C@H](O)C(=O)NO)C(C)(C)C [Example 1, N'-[3S-Hydroxy-4-(N-hydroxyamino)-2R-(2-naphthylmethyl)succinyl]-S-tert-leucine-N-methylamide]
CD23 proteinase; at 1 uM
  inhibition at 1 µM: 88%
[1]
  IC50: > 10 µM

## CNC(=O)[C@H](Cc1ccccc1)NC(=O)[C@H](Cc1ccc2ccccc2c1)[C@H](O)C(=O)NO [Example 2, N'-[3S-Hydroxy-4-(N-hydroxyamino)-2R-(2-naphthylmethyl)succinyl]-S-phenylalanine-N-methylamide]
CD23 proteinase; at 2 uM
  inhibition at 2 µM: 90%
TNFα; at 1 uM, human monocytes, LPS 200 ng/ml, 18-20 hrs
  inhibition at 1 µM: 45%
[1]; 37° C., 18 h, acetylated 3H type 1 bovine collagen, read-out: Collagenase inhibition IC50
  IC50: 8.6 µM
